Assay [1] has as its system β-Glc (from almonds). Nature of the assay: β-Glc microplate assay (hydrolysis of p-nitrophenyl-β-D-glucopyranoside). Type of assay: biochemical. As to conditions: for IC50: microplate assay, β-PNPG substrate, pH 7, 37 °C, read-out: IC50 (β-Glc inhibition). As for the experimental part: The final volume in well was 270 μL. The enzymatic reaction was initiated by addition of β-PNPG (1.63 mM end concentration in well). […] For IC50 determination, ten serial dilutions of the compounds were prepared in DMSO, following equally spaced points in […] logarithm scale, starting at 16.2 mM and finishing at 1.7 μM. IC50 was calculated using Prism V5.01 (GraphPad Software Inc., La Jolla, CA, USA) requesting the software a non-linear regression curve fit for a log[Inhibitor] vs. normalized answer model with variable slope.

Assay [2] concerns the target β-Glc. As to conditions: cited from earlier work.
Assay [3] deals with β-Glc (from almonds). As to conditions: cited from earlier work.
The next assay addresses xanthine oxidase (XO) (Bos taurus, UniProt P80457). Nature of the assay: XO microplate assay (uric acid formation). As to conditions: tested at 3 μM. Type of assay: biochemical, bovine. As for the experimental part:
Following the method previously reported by Chu,[45] the formation of uric acid was continuously measured in 96-well microplate. Each well was filled in triplicates with: of 10 μL test compound in DMSO (0.11 μM end concentration in well) and XO (bovine) in 0.2 M buffer phosphate, pH 7.5 (2.81 μU mL^−1, end concentration in well). […] The final volume in well was 270 μL. The enzymatic reaction was initiated by addition of the xanthine substrate (0.04 mM, end concentration in well). The plate was shaken for 2 s and the increase in absorbance at 295 nm was monitored at 30 °C for 20 min.

Assay [4] addresses T1, β-galactosidase (β-Gal) (Kluyveromyces lactis, UniProt P00723). Nature of the assay: β-Gal microplate assay. As to conditions: up to 3.500 mM. Type of assay: biochemical. As for the experimental part:
Similar to the method applied in β-Glc assay, the hydrolysis of o-nitrophenyl-β-O-D-galactopyranoside (β-ONPG) was continuously measured in 96-well microplate. Wells were filled in triplicate with β-Gal (Kluyveromyces lactis) in 50 mM buffer phosphate, pH 7 (7.20 μU mL^−1 final concentration in well) and 10 μL of test compound in dimethylsulfoxide (DMSO) solution (100 μM or 500 μM end concentration in well). The final volume in well was 270 μL. The enzymatic reaction was initiated by addition of β-ONPG (3.23 mM end concentration in well). The plate was shaken for 2 s and the increase in absorbance at 405 nm was monitored at 37 °C for 10 min. For IC50 determination, eighteen serial dilutions of the compounds were prepared in DMSO, following equally spaced points in neperian logarithm scale, starting at 94.50 mM and finishing at 1.44 μM. IC50 was calculated using Prism V5.01 (GraphPad Software Inc., La Jolla, CA, USA) requesting the software a non-linear regression curve fit for a log[Inhibitor] vs. normalized answer model with variable slope.

Assay [5] addresses acetyl cholinesterase (AChE) (Electrophorus electricus, UniProt O42275). Type of assay: biochemical, electric eel. As to conditions: tested at 1.5 μM. The method, then: AChE activity measurement was carried on based on Ellman's method.[46] […] The plate was shaken for 2 s and the increase in absorbance at 405 nm was monitored at 37 °C for 15 min.
The subject of assay [6] is β-Glc. Nature of the assay: Jump dilution assay. Type of assay: biochemical, almonds. The method, then:
After 30 minutes of incubation, the mixture was diluted 100-fold and mixed with the substrate and α-CD to start the reaction. The progress curve of this sample was measured and compared to a sample of enzyme incubated and diluted in the absence of inhibitor. Each incubation and dilution were prepared and measured in triplicate. The percentage of activity recovery was obtained using Prism V5.01 (GraphPad Software Inc.).

Assay [7] concerns β-Glc. Nature of the assay: Kinetic experiments (Lineweaver–Burk, Ki). Type of assay: biochemical, almonds. The method, then: Microplate assay was carried on varying substrate concentration between 0.022 and 7.2 mM; as well as the inhibitor concentration was varied between 0.239 and 0.0061 mM. Initial velocities vs. [S] curves were obtained with Michaelis–Menten equation adjustment. After that, Lineweaver–Burk linearization plot and the secondary linearization of Slopes vs. [I] reveled type of inhibition and Ki value respectively. All the data acquired was treated through Prism V5.01 (GraphPad Software Inc.).

In assay [8] the target is T1, β-galactosidase (β-Gal). More on the design: method as in earlier work. As to conditions: ref 1 (Kato et al., J. Med. Chem., 2005, 48, 2036-2044); read-out: IC50 (β-Gal), reference inhibitor; cited from earlier work.
The mark [9] stands for this setting: binds the active site of β-Glc from almonds, read-out: Ki (β-Glc from almonds).

Like-named read-outs stand apart in the source and are kept apart here.

T1 sequence (P00723 whole entry): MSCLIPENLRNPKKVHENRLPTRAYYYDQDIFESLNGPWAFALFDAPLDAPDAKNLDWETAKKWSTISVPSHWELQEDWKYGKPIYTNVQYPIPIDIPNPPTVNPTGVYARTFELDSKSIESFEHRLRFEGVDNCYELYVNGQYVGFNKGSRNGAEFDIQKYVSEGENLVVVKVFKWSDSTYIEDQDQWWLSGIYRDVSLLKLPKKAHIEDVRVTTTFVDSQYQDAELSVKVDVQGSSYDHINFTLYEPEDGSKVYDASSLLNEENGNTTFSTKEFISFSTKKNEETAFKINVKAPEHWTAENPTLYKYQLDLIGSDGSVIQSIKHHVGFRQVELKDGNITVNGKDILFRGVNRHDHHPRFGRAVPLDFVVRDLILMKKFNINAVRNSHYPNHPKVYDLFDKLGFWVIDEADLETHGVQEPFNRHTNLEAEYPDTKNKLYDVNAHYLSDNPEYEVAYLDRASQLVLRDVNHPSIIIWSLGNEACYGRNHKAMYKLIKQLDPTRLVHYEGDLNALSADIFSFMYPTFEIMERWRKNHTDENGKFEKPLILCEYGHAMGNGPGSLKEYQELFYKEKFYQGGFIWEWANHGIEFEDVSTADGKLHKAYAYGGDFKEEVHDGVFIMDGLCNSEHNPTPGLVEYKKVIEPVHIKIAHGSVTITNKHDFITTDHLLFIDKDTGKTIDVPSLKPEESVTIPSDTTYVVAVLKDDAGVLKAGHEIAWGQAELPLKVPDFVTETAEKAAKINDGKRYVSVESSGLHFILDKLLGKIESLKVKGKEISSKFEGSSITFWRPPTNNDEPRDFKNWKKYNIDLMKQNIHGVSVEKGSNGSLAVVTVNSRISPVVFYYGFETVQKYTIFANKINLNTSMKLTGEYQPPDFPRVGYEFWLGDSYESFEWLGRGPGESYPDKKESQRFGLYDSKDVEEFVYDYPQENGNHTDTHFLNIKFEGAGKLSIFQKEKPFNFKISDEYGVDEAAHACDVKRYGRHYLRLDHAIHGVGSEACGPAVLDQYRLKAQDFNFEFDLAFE
Chain of xanthine oxidase (XO) (P80457 whole entry): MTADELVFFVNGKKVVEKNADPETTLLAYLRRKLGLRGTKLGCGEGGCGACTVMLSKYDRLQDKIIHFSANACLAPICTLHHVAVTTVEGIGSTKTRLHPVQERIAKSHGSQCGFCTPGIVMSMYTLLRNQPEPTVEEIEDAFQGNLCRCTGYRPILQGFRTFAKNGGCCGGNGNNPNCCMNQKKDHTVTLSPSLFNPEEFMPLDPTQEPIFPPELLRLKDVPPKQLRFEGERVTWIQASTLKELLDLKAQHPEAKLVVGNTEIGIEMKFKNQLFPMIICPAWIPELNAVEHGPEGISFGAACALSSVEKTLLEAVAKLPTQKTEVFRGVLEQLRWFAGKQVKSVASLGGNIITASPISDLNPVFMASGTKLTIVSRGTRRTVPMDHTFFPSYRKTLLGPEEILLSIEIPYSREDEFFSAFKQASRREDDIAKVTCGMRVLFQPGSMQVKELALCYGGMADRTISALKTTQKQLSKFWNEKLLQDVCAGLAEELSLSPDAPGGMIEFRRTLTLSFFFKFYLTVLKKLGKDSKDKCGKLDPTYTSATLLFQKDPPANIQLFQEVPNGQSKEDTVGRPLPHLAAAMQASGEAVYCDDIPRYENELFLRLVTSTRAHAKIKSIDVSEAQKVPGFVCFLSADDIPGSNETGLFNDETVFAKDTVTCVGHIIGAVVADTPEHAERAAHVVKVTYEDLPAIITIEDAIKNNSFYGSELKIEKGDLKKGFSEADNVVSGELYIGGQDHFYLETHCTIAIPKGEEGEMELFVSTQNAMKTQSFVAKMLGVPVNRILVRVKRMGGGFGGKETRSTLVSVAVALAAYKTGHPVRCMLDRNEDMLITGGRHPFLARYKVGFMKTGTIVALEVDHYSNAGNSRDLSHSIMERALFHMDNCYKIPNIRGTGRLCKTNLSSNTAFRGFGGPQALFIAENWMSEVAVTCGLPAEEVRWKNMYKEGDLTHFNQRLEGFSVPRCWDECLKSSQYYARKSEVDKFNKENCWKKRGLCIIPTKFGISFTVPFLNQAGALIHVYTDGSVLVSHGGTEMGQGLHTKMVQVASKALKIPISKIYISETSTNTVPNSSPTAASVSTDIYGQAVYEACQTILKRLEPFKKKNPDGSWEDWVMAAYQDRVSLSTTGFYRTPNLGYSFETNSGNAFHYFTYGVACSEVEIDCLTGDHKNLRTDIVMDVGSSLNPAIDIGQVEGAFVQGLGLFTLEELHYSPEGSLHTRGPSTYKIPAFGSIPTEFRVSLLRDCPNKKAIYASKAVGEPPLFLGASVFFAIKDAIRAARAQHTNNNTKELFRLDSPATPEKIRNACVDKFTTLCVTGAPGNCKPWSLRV
Chain of acetyl cholinesterase (AChE) (O42275 24-633): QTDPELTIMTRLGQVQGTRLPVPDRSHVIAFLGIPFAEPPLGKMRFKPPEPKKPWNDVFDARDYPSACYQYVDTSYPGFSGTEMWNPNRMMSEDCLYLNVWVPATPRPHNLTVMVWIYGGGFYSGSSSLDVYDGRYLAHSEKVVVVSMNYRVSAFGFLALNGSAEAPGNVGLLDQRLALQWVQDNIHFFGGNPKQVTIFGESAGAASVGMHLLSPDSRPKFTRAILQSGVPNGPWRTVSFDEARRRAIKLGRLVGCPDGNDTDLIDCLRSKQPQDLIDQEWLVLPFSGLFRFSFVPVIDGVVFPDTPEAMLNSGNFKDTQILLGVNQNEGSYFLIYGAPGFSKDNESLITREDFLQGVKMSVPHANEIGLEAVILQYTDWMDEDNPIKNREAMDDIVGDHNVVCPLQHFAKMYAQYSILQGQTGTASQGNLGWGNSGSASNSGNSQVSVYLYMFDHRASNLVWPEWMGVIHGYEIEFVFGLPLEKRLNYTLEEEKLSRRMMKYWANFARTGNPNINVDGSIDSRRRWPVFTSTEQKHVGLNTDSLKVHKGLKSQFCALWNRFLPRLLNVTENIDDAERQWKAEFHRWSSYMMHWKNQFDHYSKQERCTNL

In general, IC50 refers to the concentration needed to halve the response being measured. Broadly, the Ki is a dissociation constant, usually derived from enzyme kinetics or from competition with a known ligand. Take `OC[C@H]1NC[C@H](O)[C@@H](O)[C@@H]1O` [1-DNJ, 1-deoxynojirimycin, reference compound]: the IC50 with β-Glc (from almonds) [1] was 65.2 ± 1.04 µM; in the assay with β-Glc (from almonds) [3] (read-out: IC50 (β-Glc inhibition), reported value for reference inhibitor), 81 µM. Moreover, at β-Glc [2] (measured in similar conditions, read-out: Ki (β-Glc), reference compound), the inhibition constant Ki was 47 µM.

Turning to `O=S(=O)(NCCc1c[nH]cn1)c1ccccc1` [I-a, N ^α-benzenesulfonyl histamine], the IC50 in the assay on β-Glc (from almonds) [1] came out at 197 µM.

Regarding `Cc1ccc(S(=O)(=O)NCCc2c[nH]cn2)cc1` [I-b, N ^α-p-toluenesulfonyl histamine], the IC50 in the assay on β-Glc (from almonds) [1] stood at 250 ± 1.03 µM.

The inhibition is the change of the read-out against control, counted positive when it falls. On to `O=S(=O)(NCCc1c[nH]cn1)c1ccc(F)cc1` [I-c, N ^α-4-fluorobenzenesulfonyl histamine], for which the IC50 with β-Glc (from almonds) [1] was found to be 65.1 ± 1.04 µM. Also, the “% inhibition of β-Glc at 65 μM” value with β-Glc (from almonds) [1] (tested at 65 μM) is reported as 49.94%. On xanthine oxidase (XO), this compound registered an inhibition at 3 µM of 1.31%. Besides, on β-galactosidase (β-Gal) [4], the “Inhibition of β-Gal” value is “no inhibition”. In [5], the “Inhibition of AChE” value is recorded as “no inhibition”. The “Enzyme activity recovery (jump dilution)” value with β-Glc [6] (incubated at 10-fold IC50, 30 min, diluted 100-fold) turned out to be 91%. In addition, the “Enzyme–inhibitor interaction (reversibility)” value in the assay with β-Glc [6] (jump dilution) is reported as “reversible”. In addition, in the assay with β-Glc [7] (different concentrations of p-NPG and inhibitor), the “Type of inhibition (Lineweaver–Burk plot)” value is recorded as “competitive”. On β-Glc [7] (kinetic assays, p-NPG substrate), this compound returned a Ki of 8.11 µM.

For `O=S(=O)(NCCc1c[nH]cn1)c1ccc(C(F)(F)F)cc1` [I-d, N ^α-4-(trifluoromethyl)benzenesulfonyl histamine], in the assay with β-Glc (from almonds) [1], the IC50 was found to be 79.5 ± 1.05 µM.

Consider `Cc1ccc(F)c(S(=O)(=O)NCCc2c[nH]cn2)c1` [I-e, N ^α-2-fluor-5-methylbenzenesulfonyl histamine], for which the “% of inhibition of β-Glc at 40 μM” value with β-Glc (from almonds) [1] (fixed compound concentration 40 μM) is given as no more than 25%. In addition, in the assay with β-Glc (from almonds) [1], the IC50 was 421.6 ± 0.94 µM.

Regarding `O=S(=O)(NCCc1c[nH]cn1)c1ccc(F)cc1Cl` [I-f, N ^α-2-Chloro-4-fluorobenzenesulfonyl histamine], in the assay on β-Glc (from almonds) [1], the IC50 was found to be 244.2 ± 1.09 µM.

Consider `O=S(=O)(NCCc1c[nH]cn1)c1cc(F)c(F)c(F)c1` [I-g, N ^α-3,4,5-trifluorobenzenesulfonyl histamine], for which the IC50 with β-Glc (from almonds) [1] came to 71.4 ± 1.02 µM.

On to `O=S(=O)(NCCc1c[nH]cn1)c1ccc(F)cc1C(F)(F)F` [I-h, N ^α-2-(trifluoromethyl)-4-fluorobenzenesulfonyl histamine], for which the IC50 with β-Glc (from almonds) [1] amounted to 72.7 ± 1.05 µM.

Consider `O=S(=O)(NCCc1c[nH]cn1)c1c(F)c(F)c(F)c(F)c1F` [I-i, N ^α-pentafluorobenzenesulfonyl histamine], for which, in the assay with β-Glc (from almonds) [1], the IC50 is 102 ± 1.05 µM.

For `COc1ccc(S(=O)(=O)NCCc2c[nH]cn2)cc1F` [I-j, N ^α-3-fluoro-4-methoxybenzenesulfonyl histamine], the IC50 in the assay on β-Glc (from almonds) [1] was found to be 95.5 ± 1.02 µM.

Turning to `O=S(=O)(NCCc1cn(S(=O)(=O)c2ccccc2)cn1)c1ccccc1` [II-a, N ^α,N^τ-di-benzenesulfonyl histamine], the IC50 in the assay on β-Glc (from almonds) [3] (read-out: IC50 (β-Glc inhibition), reported value) was 250 µM.

Regarding `OC[C@H]1NC[C@H](O)[C@@H](O)[C@H]1O` [galacto-DNJ], the IC50 on β-galactosidase (β-Gal) [8] is 90 µM.

As for `NCCc1c[nH]cn1` [histamine], the IC50 with β-Glc (from almonds) [1] is greater than 1000 µM. For the same compound, the Ki at β-Glc [2] (setting [9]) is 2100 µM.

In the case of `c1c[nH]cn1` [imidazole], the Ki at β-Glc [2] (setting [9]) is 530 µM.

These data come from PMC9088825, “N ^α-arylsulfonyl histamines as selective β-glucosidase inhibitors” (RSC Advances, 2018).
